Measurements published in patent US8026245B2, “HIV replication inhibiting purine derivatives” (Janssen Pharmaceutica N.V., priority 2003, dated 2011).
Like-named read-outs stand apart in the source and are kept apart here.

Assays:
[1] = Method B: cytotoxicity in mock-infected MT-4 cells engineered with GFP under a constitutional promotor; type: cell-based; details: human; Method B; mock-infected MT-4 cells with GFP, fluorescence reduced by 50%; read-out: pCC50 (−logCC50) (converted)
Description: (§1) In these cells, engineered with GFP (and an HIV-specific promotor), ongoing HIV-infection was measured fluorometrically. Cytotoxicity is measured in the same cells, but engineered with GFP under a constitutional promotor. The infection (or inhibition thereof) of HIV infected cells and the fluorescence of mock-infected cells is assessed by the fluorescent GFP signal generated by the two above mentioned cell lines.
(§2) The 50% cytotoxic concentration (CC50 in μM) was defined as the concentration of compound that reduced fluorescence of the mock-infected cells by 50%.

HIV-1 [2] = test: microbe, parasite or virus in culture; details: Human immunodeficiency virus 1, MT4, read-out: pEC50 (−logEC50) (converted)
HIV-1 [3] = details: for pSI (pEC50 − pCC50): Method B, selectivity index, ratio of CC50 to EC50
mock-infected MT-4 cells [4] = test: Method B: cytotoxicity in mock-infected MT-4 cells engineered with GFP under a constitutional promotor; type: cell-based
Description: as §1, §2

HIV-1 [5] = details: Method A
Description: An […] T4-cell line, MT-4, which was previously shown (Koyanagi et al., Int. J. Cancer, 36, 445-451, 1985) to be highly susceptible to and permissive for HIV infection, served as the target cell line. Inhibition of the HIV-induced cytopathic effect was used as the end point. The viability of both HIV- and mock-infected cells was assessed spectrophotometrically via the in situ reduction of 3-(4,5-dimethylthiazol-2-yl)-2,5-diphenyltetrazolium bromide (MTT). The 50% cytotoxic concentration (CC50 in M) was defined as the concentration of compound that reduced the absorbance of the mock-infected control sample by 50%. The percent protection achieved by the compound in HIV-infected cells was calculated by the following formula:
[formula] whereby (ODT)HIV is the optical density measured with a given concentration of the test compound in HIV-infected cells; (ODC)HIV is the optical density measured for the control untreated HIV-infected cells; (ODC)MOCK is the optical density measured for the control untreated mock-infected cells; all optical density values were determined at 540 nm. The dose achieving 50% protection according to the above formula was defined as the 50% effective concentration (EC50 in M). The ratio of CC50 to EC50 was defined as the selectivity index (SI). Method B

mock-infected MT-4 cells [6] = type: cell-based
Description: An HIV-1 transformed T4-cell line, MT-4, which was previously shown (Koyanagi et al., Int. J. Cancer, 36, 445-451, 1985) to be highly susceptible to and permissive for HIV infection, served as the target cell line. Inhibition of the HIV-induced cytopathic effect was used as the end point. The viability of both HIV- and mock-infected cells was assessed spectrophotometrically via the in situ reduction of 3-(4,5-dimethylthiazol-2-yl)-2,5-diphenyltetrazolium bromide (MTT). The 50% cytotoxic concentration (CC50 in M) was defined as the concentration of compound that reduced the absorbance of the mock-infected control sample by 50%. The percent protection achieved by the compound in HIV-infected cells was calculated by the following formula:

Structure (SMILES)	CC50 [1] [nM]	EC50 (HIV-1 [2]) [nM]	pSI (pEC50 − pCC50) (HIV-1 [3])	pCC50 (−logCC50) (mock-infected MT-4 cells [4])	pEC50 (−logEC50) (HIV-1 [3])	pEC50 (−logEC50) (HIV-1 [5]; MT-4 cells, HIV-infected, MTT, 50% protection) [M]	pSI (pCC50-pEC50) (HIV-1 [5]; selectivity index, ratio of CC50 to EC50)	pCC50 (−logCC50) (mock-infected MT-4 cells [6])
CCN(C)C(=O)/C=C/c1cc(C)c(Oc2nc(Nc3ccc(C#N)cc3)nc3ncn(Cc4ccc(OC)cc4)c23)c(C)c1 [Compound 1]	> 25100	3.98	<−3.8	–	–	–	–	–
COc1ccc(Cn2cnc3c(Nc4c(C)cc(/C=C/C#N)cc4OC)nc(Nc4ccc(C#N)cc4)nc32)cc1 [Compound 2]	5010	1	−3.7	–	–	–	–	–
COc1ccc(Cn2cnc3c(Nc4c(C)cc(/C=C/C#N)cc4C)nc(Nc4ccc(C#N)cc4)nc32)cc1 [Compound 3]	1260	3.16	−2.6	–	–	–	–	–
COc1ccc(Cn2cnc3nc(Nc4ccc(C#N)cc4)nc(Oc4c(C)cc(/C=C/C#N)cc4C)c32)cc1 [Compound 4]	10000	3.98	−3.4	–	–	–	–	–
CCN(C)C(=O)/C=C/c1cc(C)c(Oc2nc(Nc3ccc(C#N)cc3)nc3nc[nH]c23)c(C)c1 [Compound 5]	5010	3.16	−3.2	–	–	–	–	–
COc1cc(/C=C/C#N)cc(C)c1Nc1nc(Nc2ccc(C#N)cc2)nc2[nH]cnc12 [Compound 6]	794	1	−2.9	–	–	–	–	–
COc1ccc(Cn2cnc3c(Nc4c(C)cc(CCC#N)cc4C)nc(Nc4ccc(C#N)cc4)nc32)cc1 [Compound 13]	–	–	−3.1	5.2	8.2	–	–	–
COc1ccc(Cn2cnc3c(Nc4c(C)cc(/C=C/C#N)cc4Cl)nc(Nc4ccc(C#N)cc4)nc32)cc1 [Compound 14]	–	–	−2.8	5.5	8.3	–	–	–
COc1ccc(Cn2cnc3nc(Nc4ccc(C#N)cc4)nc(Oc4c(OC)cc(/C=C/C#N)cc4OC)c32)cc1 [Compound 19]	–	–	<−4.6	<4.6	9.2	–	–	–
COc1ccc(Cn2cnc3nc(Nc4ccc(C#N)cc4)nc(Oc4c(C)cc(/C=C/C(N)=O)cc4C)c32)cc1 [Compound 20]	–	–	−3.2	5.2	8.4	–	–	–
COc1ccc(Cn2cnc3nc(Nc4ccc(C#N)cc4)nc(Oc4c(C)cc(/C=C/C(=O)N(C)C)cc4C)c32)cc1 [Compound 21]	–	–	−3.6	4.8	8.4	–	–	–
Cc1cc(C)c(Oc2nc(Nc3ccc(C#N)cc3)nc3[nH]cnc23)c(C)c1 [Compound 23]	–	–	–	–	–	8.2	<−3.6	<4.6
COc1cc(OC)c(Nc2nc(Nc3ccc(C#N)cc3)nc3[nH]cnc23)c(OC)c1 [Compound 26]	–	–	−4.3	5.0	9.3	–	–	–
Cc1cc(C#N)cc(C)c1Nc1nc(Nc2ccc(C#N)cc2)nc2[nH]cnc12 [Compound 29]	–	–	−3.8	4.9	8.7	–	–	–
CCOc1cc(C)c(Nc2nc(Nc3ccc(C#N)cc3)nc3[nH]cnc23)c(C)c1 [Compound 30]	–	–	−4.0	4.8	8.8	–	–	–
Cc1cc(OCC#N)cc(C)c1Nc1nc(Nc2ccc(C#N)cc2)nc2[nH]cnc12 [Compound 31]	–	–	<−4.7	<4.6	9.3	–	–	–
Cc1cc(CCC#N)cc(C)c1Nc1nc(Nc2ccc(C#N)cc2)nc2[nH]cnc12 [Compound 32]	–	–	−3.5	4.8	8.3	–	–	–
Cc1cc(/C=C/C#N)cc(C)c1Oc1nc(Nc2ccc(C#N)cc2)nc2[nH]cnc12 [Compound 33]	–	–	−3.5	5.0	8.5	–	–	–
Cc1cc(/C=C/C#N)cc(C)c1Nc1nc(Nc2ccc(C#N)cc2)nc2[nH]cnc12 [Compound 34]	–	–	−3.7	4.8	8.5	–	–	–
COc1cc(/C=C/C#N)cc(OC)c1Oc1nc(Nc2ccc(C#N)cc2)nc2[nH]cnc12 [Compound 35]	–	–	−3.5	4.9	8.4	–	–	–
Cc1cc(/C=C/C(=O)N(C)C)cc(C)c1Nc1nc(Nc2ccc(C#N)cc2)nc2[nH]cnc12 [Compound 37]	–	–	−2.7	5.4	8.1	–	–	–

Structure (SMILES)	CC50 [1] [nM]	EC50 (HIV-1 [2]) [nM]	pSI (pEC50 − pCC50) (HIV-1 [3])	pCC50 (−logCC50) (mock-infected MT-4 cells [4])	pEC50 (−logEC50) (HIV-1 [3])	pEC50 (−logEC50) (HIV-1 [5]; MT-4 cells, HIV-infected, MTT, 50% protection) [M]	pSI (pCC50-pEC50) (HIV-1 [5]; selectivity index, ratio of CC50 to EC50)	pCC50 (−logCC50) (mock-infected MT-4 cells [6])
Cc1cc(/C=C/C#N)cc(C)c1Nc1nc(Nc2ccc(C#N)cc2)nc2ncn(C)c12 [Compound 44]	–	–	3.3	4.7	–	–	–	–
Cc1cc(C)c(Nc2nc(Nc3ccc(C#N)cc3)nc3c2ncn3C)c(C)c1 [Compound 45]	–	–	>4.6	<4.6	9.2	–	–	–
Cc1cc(C#N)cc(C)c1Nc1nc(Nc2ccc(C#N)cc2)nc2c1ncn2C [Compound 46]	–	–	>4.8	<4.6	9.4	–	–	–
CCn1cnc2c(Nc3c(C)cc(/C=C/C#N)cc3OC)nc(Nc3ccc(C#N)cc3)nc21 [Compound 48]	> 25100	0.631	>4.6	–	–	–	–	–
COc1cc(/C=C/C#N)cc(C)c1Nc1nc(Nc2ccc(C#N)cc2)nc2c1ncn2C(C)C [Compound 49]	–	–	3.5	5.5	9.0	–	–	–
COc1cc(/C=C/C#N)cc(C)c1Nc1nc(Nc2ccc(C#N)cc2)nc2c1ncn2CCO [Compound 50]	–	–	3.4	5.8	9.2	–	–	–
COc1cc(/C=C/C#N)cc(C)c1Nc1nc(Nc2ccc(C#N)cc2)nc2c1ncn2CC#N [Compound 52]	2000	0.501	3.6	–	–	–	–	–
COc1cc(/C=C/C#N)cc(Cl)c1Nc1nc(Nc2ccc(C#N)cc2)nc2[nH]cnc12 [Compound 53]	–	–	2.6	6.1	8.7	–	–	–
Cc1cc(/C=C/C#N)cc(Cl)c1Nc1nc(Nc2ccc(C#N)cc2)nc2[nH]cnc12 [Compound 54]	–	–	3.2	5.5	8.7	–	–	–
N#C/C=C/c1cc(Cl)c(Nc2nc(Nc3ccc(C#N)cc3)nc3[nH]cnc23)c(Cl)c1 [Compound 55]	–	–	3.0	5.6	8.6	–	–	–
CC(=CC#N)c1cc(C)c(Nc2nc(Nc3ccc(C#N)cc3)nc3[nH]cnc23)c(C)c1 [Compound 56]	–	–	>3.8	<4.6	8.4	–	–	–
C/C(=C\C#N)c1cc(C)c(Nc2nc(Nc3ccc(C#N)cc3)nc3c2ncn3C)c(C)c1 [Compound 57]	> 25100	1	>4.4	–	–	–	–	–
CCC(=CC#N)c1cc(C)c(Nc2nc(Nc3ccc(C#N)cc3)nc3[nH]cnc23)c(C)c1 [Compound 58]	–	–	3.2	5.1	8.3	–	–	–
CCC(=CC#N)c1cc(C)c(Nc2nc(Nc3ccc(C#N)cc3)nc3c2ncn3C)c(C)c1 [Compound 59]	–	–	>3.9	<4.6	8.5	–	–	–
CCC(=CC#N)c1cc(C)c(Nc2nc(Nc3ccc(C#N)cc3)nc3c2ncn3CC#N)c(C)c1 [Compound 60]	–	–	3.6	5.0	8.6	–	–	–
CC(C#N)=Cc1cc(C)c(Nc2nc(Nc3ccc(C#N)cc3)nc3[nH]cnc23)c(C)c1 [Compound 62]	–	–	>4.0	<4.6	8.6	–	–	–
COc1cc(C=C(C)C#N)cc(C)c1Nc1nc(Nc2ccc(C#N)cc2)nc2[nH]cnc12 [Compound 63]	–	–	3.3	5.1	8.4	–	–	–
CC(C#N)=Cc1cc(C)c(Nc2nc(Nc3ccc(C#N)cc3)nc3c2ncn3C)c(C)c1 [Compound 64]	–	–	>4.7	<4.6	9.3	–	–	–
C/C(C#N)=C(/C)c1cc(C)c(Nc2nc(Nc3ccc(C#N)cc3)nc3[nH]cnc23)c(C)c1 [Compound 65]	–	–	3.1	5.0	8.1	–	–	–
COc1ccc(Cn2cnc3c(Nc4ccc(C#N)cc4)nc(Nc4c(C)cc(C#N)cc4C)nc32)cc1 [Compound 72]	> 25100	3.16	>3.9	–	–	–	–	–
COc1ccc(Cn2cnc3c(Nc4ccc(C#N)cc4)nc(Nc4c(C)cc(/C=C/C#N)cc4C)nc32)cc1 [Compound 73]	> 25100	5.01	>3.7	–	–	–	–	–
